Assay results reported in US20140275539A1, “STABILIZATION OF RADIOIODINATED AND ASTATINATED PHARMACEUTICALS AND IMAGING AGENTS” (priority 2013, published 2014).

Experiments:
[1] = DFT calculation of C—I bond dissociation energy (B3LYP/6-31G(d,p)/MIDI!, Gaussian 03); conditions: estimated from the DFT data, compound not covered by the calculations
Description: Density Functional Theory (DFT) calculations performed on a variety of model structures strongly support the novelty and uniqueness of this approach. […] Calculations were performed with the Gaussian 03 suite of programs.
Table 2 summarizes results of density functional theory calculations (B3LYP/6-31G(d,p)/MIDI!, thermal and zero point energy corrected) for compounds 1, 7, and 8, showing the dissimilar impact of ortho-chlorine substitution on the strength of the C—I bond. […] Chlorine substitution results in significant C—I bond weakening compared to iodobenzene.
Table 3 depicts the results of density functional theory calculations for compounds 1, 5, and 9-14 (B3LYP/SDD for astatobenzenes, B3LYP/6-31G(d,p)/MIDI! for the iodobenzenes, and B3LYP/6-31G(d,p) for 11-14; thermal and zero point energy corrected) showing how the effect of ortho fluorine substitution falls off as the bond strength of the C—X (where X=halogen) bond increases.
Table 4 depicts results of DFT calculations (B3LYP/6-31G(d,p)/MIDI! for compounds 15-22; thermal and zero point energy corrected) showing how the effect of ortho fluorine applies to heterocyclic systems.
Table 5 depicts results of density functional theory calculations (B3LYP/6-31G(d,p)/MIDI!; thermal and zero point energy corrected) for compounds 23-34, showing how the effect of ortho fluorine substituents applies to five-membered ring heterocycles. […]

[2] = more cytotoxic than ^123I-MIBG; cited from earlier work

Structure (SMILES) | C—I bond energy increase over the derivative in which the fluorine substituents are replaced by hydrogen atoms [1] | cytotoxicity relative to ^123I-MIBG [2]
N[C@@H](Cc1cc(I)c(Oc2ccc(F)c(I)c2F)c(I)c1)C(=O)O | approximately 2.5 kcal/mol | 
N=C(N)NCc1cccc([211At])c1 [^211At-MIBG] |  | approximately 1000 times
